19 compounds from patent US6444684B1 (priority 1993, dated 2002) can be followed below.

A value given as a limit tells only on which side of the number the result lay.

One data set has as its target HIV-RT (Human immunodeficiency virus type 1 group M subtype B, UniProt P03366). The data set is described as follows: HIV-RT inhibition by AZT-TP, lavendamycin analogs and their combinations. The class given is biochemical. The settings on record: LA Conc. 0 (unit uncertain); for % inh. ave.: average of three trials. Also on record: unit of the concentration uncertain. The source says:
AZT-TP was used for these in vitro studies since AZT is naturally phosphorylated in vivo.
The results of these tests are given in Table XVIII and XIX below, where the percent inhibition of HIV-RT activity is reported for three different trials and then averaged in the seventh column. […] .

Data set [1] deals with K/1-NRKE tumor (ras^K-transformed NRKE cells). The following applies: mouse, in vivo.
In the next data set the test system is CNS Cancer cell lines. The data set is described as follows: NCI in vitro anticancer screen (SRB), CNS cancer subpanel. The settings on record: 48 hours exposure; average percent growth over the cell lines.
Another data set has as its system Breast Cancer cell lines. The data set can be described thus: NCI in vitro anticancer screen (SRB), breast cancer subpanel. The following applies: 48 hours exposure; average percent growth over the cell lines.
The subject of another data set is Leukemia cell lines. The data set can be described thus: NCI in vitro anticancer screen (SRB), leukemia subpanel. The following applies: 48 hours exposure; average percent growth over the cell lines.
For data set [2], the system named is H/1.2 = ras^H Transformed NRKE Cells. The settings on record: H/1.2 = ras^H transformed NRKE cells, compared with normal NRKE cells.
The next data set deals with Colon Cancer cell lines. The data set is described as follows: NCI in vitro anticancer screen (SRB), colon cancer subpanel. The settings on record: 48 hours exposure; average percent growth over the cell lines.
In data set [3] the test system is Ovarian Cancer cell lines. The data set is described as follows: NCI in vitro anticancer screen (SRB), ovarian cancer subpanel. The settings on record: 48 hours exposure; average percent growth over the cell lines.
Data set [4] concerns 3LL = Lewis Lung Carcinoma Cells. The following applies: 3LL = Lewis lung carcinoma cells, compared with normal NRKE cells.
In data set [5] the test system is Prostate Cancer cell lines. The data set can be described thus: NCI in vitro anticancer screen (SRB), prostate cancer subpanel. The settings on record: 48 hours exposure; average percent growth over the cell lines.
Experimental: (§1) Compounds chosen for the program are initially tested in an in vitro anticancer screen. A total of fifty-five human tumor cell lines, derived from nine cancer types (lung, colon, melanoma, renal, ovarian, brain, prostate, breast and leukemia), are used in this screen. The tumor cells are inoculated over a series of standard 96-well microtiter plates on day 0. These cells are then preincubated on the microtiter plates for 24 hours. The test compounds are added to the wells in five 10-fold dilutions starting from the highest soluble concentration. Each compound is tested against every cell line in the panel. The compounds are incubated for 48 hours with the tumor cell lines. At the termination of the assay, the cells are fixed in situ, washed, and dried. Sulforhodamine B (SRB), a pink anionic dye that binds to the basic amino acids of trichloroacetic acid-fixed cells, is added. The cells are washed again, and the remaining dye is a function of the adherent cell mass. The bound stain is solubilized and measured spectrophotometrically. The data are entered from automatic reading devices into a computer for subsequent storage and analysis.
(§2) The measured effect of each test compound on the cell lines is calculated according to one or the other of the following two expressions:
(§3) If (Mean ODtest−Mean ODtzero)□0, then PG=100×(Mean ODtest−Mean ODtzero)/(Mean ODctrl−Mean ODtzero);
(§4) If (Mean ODtest−Mean ODtzero)<0, then PG=100×(Mean ODtest−Mean ODtzero)/Meantzero;
The next data set deals with Renal Cancer cell lines. The data set can be described thus: NCI in vitro anticancer screen (SRB), renal cancer subpanel. The following applies: 48 hours exposure; average percent growth over the cell lines.
Data set [6] deals with N/4.2-NRKE transformed by the human ras^N gene. The settings on record: N/4.2 = ras^N transformed NRK cells, compared with normal NRKE cells.
The test system of data set [7] is K/1 = ras^K Transformed NRKE Cells. The following applies: K/1 = ras^K transformed NRKE cells, compared with normal NRKE cells.
The test system of data set [8] is Non-Small Cell Lung Cancer cell lines. The data set can be described thus: NCI in vitro anticancer screen (SRB), non-small cell lung cancer subpanel. The settings on record: 48 hours exposure; average percent growth over the cell lines.
Experimental: as §1, §2, §3, §4
(§5) First, a data sheet is provided which lists, for each cell line, the Mean ODtzero, the Mean ODctrl, the Mean ODtest for each of the five concentrations, the calculated PGs for each concentration, and the response parameters G150, TGI, and LC50.
(§6) Third, mean graphs at each of the principal response parameters (GI50, TGI, and LC50) are provided. […] Since the bar scale is logarithmic, a bar two units to the right implies the compound achieved the response parameter (e.g., GI50) for the cell line at a concentration 1/100 the mean concentration required over all cell lines, and thus the cell line is unusually sensitive to that compound. Bars extending to the left correspondingly imply sensitivity less than the mean. Thus, the mean graphs facilitate visual scanning of data for potential patterns of selectivity for particular cell lines or for particular subpanels with respect to a selected response parameter.
A further data set relates to Melanoma cell lines. The data set is described as follows: NCI in vitro anticancer screen (SRB), melanoma subpanel. The following applies: 48 hours exposure; average percent growth over the cell lines.
The mark [9] stands for this setting: AZT-TP Conc. 0.01 (unit uncertain).
Where [10] appears, read: AZT-TP Conc. 0.05 (unit uncertain).

Experimental for Breast Cancer cell lines: as §1, §2, §3, §4
Experimental for CNS Cancer cell lines: as §1, §2, §3, §4, §5, §6
Experimental for Colon Cancer cell lines: as §1, §2, §3, §4
Experimental for Melanoma cell lines: as §1, §2, §3, §4, §5, §6

Consider `Cc1cn([C@H]2C[C@H](N=[N+]=[N-])[C@@H](COP(=O)(O)OP(=O)(O)OP(=O)(O)O)O2)c(=O)[nH]c1=O` [AZT-TP, 3′-azido-3′-deoxythymidine 5′-triphosphate, reference compound], for which, at HIV-RT (setting [9]), the “% inh. Trial 1” value is recorded as 27%, the “% inh. Trial 2” value was found to be 27%, the “% inh. Trial 3” value amounted to 29% and the “% inh. ave.” value was found to be 27.7%. Besides, at HIV-RT (setting [10]), the “% inh. Trial 1” value stood at 51%, the “% inh. Trial 2” value is given as 52%, the “% inh. Trial 3” value worked out at 49% and the “% inh. ave.” value is 50.7%.
As to `O=P1(N(CCCl)CCCl)NCCCO1` (centres unmarked) [CY, cyclophosphamide, reference compound], in [1] (female, CD1 nu/nu), the “Number Dead Number Treated” value is 0/7. Moreover, the “Percent Wt. Change (g)” value in data set [1] is −3.0 ″ 0.09 g.
For `CC(=O)NC1=CC(=O)c2ccc(-c3nc(C(=O)O)cc4c3[nH]c3ccccc34)nc2C1=O` [Compound 2], in the data set with CNS Cancer cell lines, the “Activity (Average PG for highest dose tested) CNS Cancer” value is −26.6%. Also, in the data set on Breast Cancer cell lines, the “Activity (Average PG for highest dose tested) Breast Cancer” value is −32.6%. In addition, in the data set on Leukemia cell lines, the “Activity (Average PG for highest dose tested) Leukemia” value is listed as −34.7%. The “Differential Index H/1.2” value in [2] amounted to 1.36. In addition, the “Activity (Average PG for highest dose tested) Colon Cancer” value with Colon Cancer cell lines is recorded as −43.6%. Moreover, the “Activity (Average PG for highest dose tested) Ovarian Cancer” value in data set [3] was −62.7%. In addition, the “Differential Index 3LL” value in [4] is reported as 0.38. Moreover, the “Activity (Average PG for highest dose tested) Prostate Cancer” value in [5] is listed as −45.5%. Besides, the “Activity (Average PG for highest dose tested) Renal Cancer” value in the data set on Renal Cancer cell lines was −74.6%. In addition, the “Differential Index N/4.2” value in data set [6] was determined as 1.50. In data set [7], the “Differential Index K/1” value turned out to be 2.14. In addition, in [8], the “Activity (Average PG for highest dose tested) Non-Small Cell Lung Cancer” value is given as −27.9%. Also, the “Activity (Average PG for highest dose tested) Melanoma” value in the data set on Melanoma cell lines is −53.7%.
Consider `CCCCOC(=O)c1cc2c([nH]c3ccc(OC)cc32)c(-c2ccc3c(n2)C(=O)C(NC(C)=O)=CC3=O)n1` [Compound 4], for which the “Differential Index H/1.2” value in [2] was found to be 1.19. Moreover, the “Differential Index 3LL” value in data set [4] is reported as less than 0.75. Besides, the “Differential Index N/4.2” value in data set [6] is 1.14. Moreover, the “Differential Index K/1” value in [7] was determined as 1.14.
In the case of `CCCCOC(=O)c1cc2c([nH]c3ccc(F)cc32)c(-c2ccc3c(n2)C(=O)C(NC(C)=O)=CC3=O)n1` [Compound 5], in [2], the “Differential Index H/1.2” value was found to be 0.88. The “Differential Index 3LL” value in data set [4] was 0.29. In data set [6], the “Differential Index N/4.2” value stood at 0.74. In addition, the “Differential Index K/1” value in [7] is 1.88.
Taken in the same sequence, the figures for `CC(=O)NC1=CC(=O)c2ccc(-c3nccc4c3[nH]c3ccccc34)nc2C1=O` [Compound 6] were 1.00, 0.13, 0.82 and 0.91.
The like results for `COC(=O)c1nc(-c2ccc3c(n2)C(=O)C(NC(=O)CCl)=CC3=O)c2[nH]c3ccccc3c2c1C` [Compound 7, 7-N-CHLOROACETYLLAVENDAMYCIN METHYL ESTER] were, in that order, 1.00, 0.29, 0.76 and 0.73.
In the case of `CC(C)CCOC(=O)c1cc2c([nH]c3ccccc32)c(-c2ccc3c(n2)C(=O)C(NC(=O)CCl)=CC3=O)n1` [Compound 9, 7-N-CHLOROACETYLDEMETHYLLAVENDAMYCIN ISOAMYL ESTER], the “Differential Index H/1.2” value in [2] worked out at 1.02. The “Differential Index 3LL” value in [4] came to 0.42. Moreover, the “Differential Index N/4.2” value in data set [6] was determined as 1.13. The “Differential Index K/1” value in data set [7] was 2.41.
The like results for `CCCCCCCCOC(=O)c1cc2c([nH]c3ccccc32)c(-c2ccc3c(n2)C(=O)C(NC(=O)CCl)=CC3=O)n1` [Compound 10, 7-N-CHLOROACETYLDEMETHYLLAVENDAMYCIN OCTYL ESTER] were, in that order, “i1.0”, “i1.0”, “i1.0” and greater than 2.2.
As for `CCCC(=O)NC1=CC(=O)c2ccc(-c3nc(C(=O)OC)c(C)c4c3[nH]c3ccccc34)nc2C1=O` [Compound 11, 7-N-BUTYRYLLAVENDAMYCIN METHYL ESTER], the “Differential Index H/1.2” value in data set [2] worked out at 0.80. Moreover, in data set [4], the “Differential Index 3LL” value was 0.39. In addition, the “Differential Index N/4.2” value in [6] worked out at 0.76. For the same compound, the “Differential Index K/1” value in data set [7] came out at 0.97.
Regarding `CCCCOC(=O)c1cc2c([nH]c3ccccc32)c(-c2ccc3c(n2)C(=O)C(NC(=O)CCC)=CC3=O)n1` [Compound 12], the “Differential Index H/1.2” value in data set [2] stood at 1.61. Moreover, the “Differential Index 3LL” value in data set [4] was determined as 0.29. In addition, the “Differential Index N/4.2” value in data set [6] stood at 0.94. Moreover, the “Differential Index K/1” value in data set [7] is 1.32.
As to `CCCC(=O)NC1=CC(=O)c2ccc(-c3nc(C(=O)OCCC(C)C)cc4c3[nH]c3ccccc34)nc2C1=O` [Compound 13, 7-N-BUTYRYLDEMETHYLLAVENDAMYCIN ISOAMYL ESTER], the “Differential Index H/1.2” value in [2] is recorded as 2.70. For the same compound, the “Differential Index 3LL” value in data set [4] is 0.42. Further, in data set [6], the “Differential Index N/4.2” value came to 1.53. For the same compound, the “Differential Index K/1” value in [7] came out at 1.67.
As to `CCCCCCCCOC(=O)c1cc2c([nH]c3ccccc32)c(-c2ccc3c(n2)C(=O)C(NC(=O)CCC)=CC3=O)n1` [Compound 14, 7-N-BUTYRYLDEMETHYLLAVENDAMYCIN OCTYL ESTER], the “Differential Index H/1.2” value in [2] was greater than 2.06. Besides, in [4], the “Differential Index 3LL” value is recorded as greater than 2.06. The “Differential Index N/4.2” value in data set [6] is given as greater than 2.2. Moreover, in data set [7], the “Differential Index K/1” value is listed as greater than 10.0.
In the case of `CCCCOC(=O)c1cc2c([nH]c3ccccc32)c(-c2ccc3c(n2)C(=O)C(NC(=O)C(C)C)=CC3=O)n1` [Compound 15], the “Differential Index H/1.2” value in data set [2] is given as 1.48. Also, the “Differential Index 3LL” value in data set [4] was 1.00. For the same compound, the “Differential Index N/4.2” value in data set [6] amounted to 1.80. For the same compound, the “Differential Index K/1” value in data set [7] is 2.25.
The like results for `CC(C)C(=O)NC1=CC(=O)c2ccc(C=O)nc2C1=O` [Compound 25] were, in that order, “˜1.0”, greater than 3.3, “˜1.0” and greater than 1.5.
Taken in the same sequence, the figures for `Cc1ccc2c(n1)C(=O)C(NC(=O)C(C)C)=CC2=O` [Compound 29] were 1.03, 2.1, 1.3 and 0.2.
For the compound `CCCCCCCCOC(=O)c1cc2c([nH]c3ccccc32)c(-c2ccc3c(n2)C(=O)C(NC=O)=CC3=O)n1` [Compound 56, 7-N-formyldemethyllavendamycin octyl ester], the “Activity (Average PG for highest dose tested) CNS Cancer” value in the data set on CNS Cancer cell lines is recorded as −36.8%. In the data set with Breast Cancer cell lines, the “Activity (Average PG for highest dose tested) Breast Cancer” value is recorded as −42.3%. Besides, in the data set with Leukemia cell lines, the “Activity (Average PG for highest dose tested) Leukemia” value is −29.7%. For the same compound, in [2], the “Differential Index H/1.2” value is “i1.00”. Besides, in the data set on Colon Cancer cell lines, the “Activity (Average PG for highest dose tested) Colon Cancer” value was −30.0%. Moreover, the “Activity (Average PG for highest dose tested) Ovarian Cancer” value in [3] is −57.3%. Further, the “Differential Index 3LL” value in data set [4] is given as greater than 1.03. In [5], the “Activity (Average PG for highest dose tested) Prostate Cancer” value is “+14.0%”. Further, in the data set with Renal Cancer cell lines, the “Activity (Average PG for highest dose tested) Renal Cancer” value is −51.3%. In [6], the “Differential Index N/4.2” value is on record as greater than 1.5. In [7], the “Differential Index K/1” value is reported as greater than 1.57. For the same compound, the “Activity (Average PG for highest dose tested) Non-Small Cell Lung Cancer” value in data set [8] is given as −28.8%. The “Activity (Average PG for highest dose tested) Melanoma” value with Melanoma cell lines is listed as −39.9%.
In the case of `CCCCCCCCOC(=O)c1cc2c([nH]c3ccccc32)c(-c2ccc3c(n2)C(=O)C(N)=CC3=O)n1` [Compound 57, demethyllavendamycin octyl ester], the “Activity (Average PG for highest dose tested) CNS Cancer” value with CNS Cancer cell lines is recorded as “+81.0%”. Besides, the “Activity (Average PG for highest dose tested) Breast Cancer” value with Breast Cancer cell lines was “+96.0%”. Also, the “Activity (Average PG for highest dose tested) Leukemia” value in the data set with Leukemia cell lines is “+90.8%”. Moreover, in the data set on Colon Cancer cell lines, the “Activity (Average PG for highest dose tested) Colon Cancer” value was “+100.3%”. The “Activity (Average PG for highest dose tested) Ovarian Cancer” value in data set [3] is reported as “+89.3%”. Also, the “Activity (Average PG for highest dose tested) Prostate Cancer” value in [5] is “+94.5%”. The “Activity (Average PG for highest dose tested) Renal Cancer” value with Renal Cancer cell lines is listed as “+68.7%”. Besides, the “Activity (Average PG for highest dose tested) Non-Small Cell Lung Cancer” value in data set [8] is “+89.8%”. The “Activity (Average PG for highest dose tested) Melanoma” value in the data set with Melanoma cell lines is “+89.4%”.
Turning to `Cc1ccc2c(n1)C(=O)C(N)=C(Cl)C2=O` [Compound 59, 7-Amino-6-Chloro-2-Methylquinoline-5,8-Dione], the “Differential Index H/1.2” value in data set [2] came out at 1.25. Besides, in [4], the “Differential Index 3LL” value came out at 0.63. Further, the “Differential Index N/4.2” value in data set [6] came to 1.14. Moreover, the “Differential Index K/1” value in data set [7] stood at 1.25.
